According to US12416101B2, “Genetically-encoded macrocyclic peptide libraries bearing a pharmacophore” (THE GOVERNORS OF THE UNIVERSITY OF ALBERTA, priority 2018, dated 2025):
Residues, ends and D or L forms follow the SMILES beside them.

Columns and labels:
Solubility in water = format: physicochemical
phage = test: Toxicity of hydrazines to phage, plaque forming assay; set-up: species or system bacteriophage
Description: In the reaction between phage diketone and hydrazine, some hydrazine derivatives cause toxicity to phage, leading to elimination of >99.999% of infective phage particles in less than 5 minutes (as determined by plaque forming assay). For example, treating phage with 2 mM phenyl hydrazine for 2 minutes decreased the number of infective particles from 10^5 to zero. The source and mechanism of toxicity was not obvious and was difficult to systematize: it depended on the concentration of hydrazine and its nature, as well as some sporadic factors (preparation of solution). Toxicity dependence on concentration of hydrazine was not linear. In many cases, hydrazine was lethal to phage eliminating all infective particles before the reaction was completed. […] Optimal location conditions between phage-diketone and hydrazine derivatives are in the presence of 1-2 mM metal chelator such as EDTA.

solubility in water (Solubility in water)	Structure (SMILES)	decrease in the number of infective particles (phage; 2 to 20 mM phenyl hydrazine in the presence of 1 to 2 mM EDTA, several hours)	number of infective particles after treatment (phage; phage treated with 2 mM phenyl hydrazine for 2 minutes, starting number 10^5, no chelator)
high	CC(C)[C@H](NC(=O)[C@H](CS)NC(=O)[C@H](CCC(N)=O)NC(=O)[C@@H](N)CO)C(=O)N[C@@H](CCCNC(=N)N)C(=O)N[C@@H](CO)C(=O)N[C@@H](CS)C(=O)O [SQCVRSC] (H-SQCVRSC-OH; N-terminus and C-terminus assumed)	–	–
–	NNc1ccccc1 [phenyl hydrazine]	did not show any significant decrease	zero
